Assay results from patent publication EP0819136B1, “MDP DERIVATIVES AND CONJUGATES HAVING HAEMATOPOIETIC FUNCTION STIMULATING ACTIVITY, AND COMPOSITIONS CONTAINING SAME” (VACSYN S.A., priority 1995, dated 1996).

Assays:
[1] = tested on: globules rouges et les plaquettes; test: Red blood cell and platelet counts after 7 days of oral AZT, Muradimétide or both (Example 3, figures 9 and 10); format: in vivo, souris femelles BALB/c; details: p.o. once daily for 7 days: 100 mg/kg AZT, 50 mg/kg muradimétide, or both simultaneously; counts up to day 10
Text: La figure 9 représente l'effet du traitement per os de souris BALB/c pendant 7 jours consécutifs avec de l'AZT, du Muradimétide (MDM) ou un mélange de ceux-ci sur la numération plaquettaire.
La figure 10 représente l'effet du traitement per os de souris BALB/c pendant 7 jours consécutifs avec de l'AZT, du Muradimétide (MDM) ou un mélange de ceux-ci sur le nombre des globules rouges.
L'effet d'un traitement de 7 jours sur le nombre de globules rouges et de plaquettes est indiqué dans les figures 9 et 10 respectivement. Les numérations sont représentées en pourcentage de celles obtenues au jour 0. Des souris femelles BALB/c (5 par groupe) sont traitées une fois par jour pendant 7 jours consécutifs par 100 mg/kg d'AZT (Δ), 50 mg/kg de muradimétide (D) ou simultanément par 100 mg/kg d'AZT et 50 mg/kg de muradimétide (O). Les comptages de plaquettes ou de globules rouges ont été réalisés au jour 0 et jusqu'à 10 jours suivant le début du traitement. […] La tendance à l'augmentation de leur nombre apparaît entre les jours 4 et 5. En revanche, l'anémie qui pourrait être observée dans les groupes traités pourrait être due aux saignements répétés; néanmoins la vitesse et l'importance de l'anémie est grandement réduite chez les animaux traités avec le mélange des deux produits en comparaison avec celui observé dans le groupe traité par l'AZT seul. […]

myélocytes circulants = test: Circulating myelocytes during two weeks of oral treatment, 4 days per week (Example 4, figure 11); format: in vivo, souris; details: p.o. days 0, 1, 2, 3 and 7, 8, 9, 10; MDM 25 mg/kg, AZT 50 mg/kg or both
Description: La figure 11 représente l'effet d'un traitement per os de souris pendant deux semaines consécutives (4 jours par semaine) avec l'AZT, le Muradimétide ou le mélange des deux sur le nombre des myélocytes circulants.
La figure 11 montre l'effet d'un traitement par le MDM à 25 mg/kg (X), de l'AZT à 50 mg/kg (O) et du mélange des deux (□) sur le comptage des myélocytes de souris traitées pendant 2 semaines aux jours 0, 1, 2, 3 de la première semaine et 7, 8, 9, 10 de la deuxième semaine. […] Si l'effet est surtout marqué au niveau de la première semaine, cela montre que le traitement nécessite un certain espace de temps entre les différents cycles de traitement et que des traitements répétés pourraient, le cas échéant, être utiles.

myélocytes = test: Comparison of oral Muradimétide and MDPA on myelocyte count after i.v. AZT (Example 10, figure 8); format: in vivo, souris swiss femelles; details: AZT 40 mg/kg i.v. days 0-3; MDPA 25 mg/kg p.o. 4 h before AZT
Text: La figure 8 représente l'effet d'un traitement per os des souris avec du Muradimétide sur le changement de la numération myélocyte dans le sang circulant induite suite à une administration intra-veineuse d'AZT, deux dérivés de MDP étant comparés : le MDPA (Nac-Mur-L-ALa-D-Glu) et le Muradimétide.
Le dérivé utilisé pour mettre en évidence l'effet particulier du Muradimétide est le MDPA. La figure 8 indique l'effet sur des souris d'un traitement per os sur les changements de la numération de myélocyte induite suite à une administration intraveineuse d'AZT. Dans cette expérience, les souris swiss femelles ont été traitées de façon intraveineuse avec 40 mg par kg d'AZT aux jours 0, 1, 2 et 3. Des groupes de 5 souris ont reçu aux mêmes quatre jours et 4 heures avant l'AZT soit de l'eau physiologique, soit du MDPA à la dose de 25 mg par kg ou du Muradimétide par voie orale à la dose de 25 mg par kg. Les comptages de myélocytes ont été réalisés aux jours 0, 2, 3, 4 et 8. Les étoiles au-dessus des histogrammes ont la même signification que dans les diagrammes précédents.

Compound	toxicité sur les plaquettes [1]	effet sur la mobilisation des CHS (comptage des myélocytes) (myélocytes circulants)	effet antimyélotoxique et mobilisation des CSH dans la circulation sanguine (myélocytes)
Cc1cn([C@H]2C[C@H](N=[N+]=[N-])[C@@H](CO)O2)c(=O)[nH]c1=O [AZT, 3'-Azido-3'-desoxy-thymidine, reference compound]	Aucune toxicité	strictement aucun effet	
CC(=O)N[C@H]1C(O)O[C@H](CO)[C@@H](O)[C@@H]1O[C@H](C)C(=O)N[C@@H](C)C(=O)N[C@H](CCC(=O)O)C(=O)O (stereo partly drawn) [MDPA, Nac-Mur-L-ALa-D-Glu]			n'étant pas retrouvé
